According to PubChem BioAssay AID1982 (Sanford-Burnham Center for Chemical Genomics, 2009):
Calls of active or inactive are those of the source. How the calls were made is not given here.

Key:
Test in all cases: kinase panel binding selectivity, selectivity assay, biochemical, KINOMEscan (AID 1982)
ANKK1 = conditions: KINOMEscan 353-kinase binding panel, qPCR, at 10 µM, stronger effect = lower value
BRSK2 = conditions: KINOMEscan 353-kinase binding panel, qPCR, at 10 µM, stronger effect = lower value
CAMK1G = conditions: KINOMEscan 353-kinase binding panel, qPCR, at 10 µM, stronger effect = lower value
[1] = target: Calcium/calmodulin-dependent protein kinase type II subunit gamma (Homo sapiens) (UniProt Q13555); conditions: KINOMEscan 353-kinase binding panel, qPCR; CAMK2G; at 10 µM; stronger effect = lower value
[2] = target: Casein kinase I isoform gamma-1 (Homo sapiens) (UniProt Q9HCP0); conditions: KINOMEscan 353-kinase binding panel, qPCR; CSNK1G1; at 10 µM; stronger effect = lower value
Casein kinase I isoform gamma-1 (Homo sapiens), sequence (Q9HCP0 whole entry, looked up, canonical isoform): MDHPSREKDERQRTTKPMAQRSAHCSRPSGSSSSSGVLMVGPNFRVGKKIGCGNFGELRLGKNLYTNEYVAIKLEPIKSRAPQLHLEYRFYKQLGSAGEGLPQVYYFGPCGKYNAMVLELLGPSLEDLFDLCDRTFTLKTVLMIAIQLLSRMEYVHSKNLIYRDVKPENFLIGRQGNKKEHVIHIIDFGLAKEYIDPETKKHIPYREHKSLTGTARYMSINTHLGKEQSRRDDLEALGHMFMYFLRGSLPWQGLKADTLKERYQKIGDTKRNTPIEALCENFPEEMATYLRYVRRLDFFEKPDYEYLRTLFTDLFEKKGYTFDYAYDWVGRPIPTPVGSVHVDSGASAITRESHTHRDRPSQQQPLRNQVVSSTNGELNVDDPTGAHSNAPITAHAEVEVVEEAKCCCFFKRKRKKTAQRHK

[3] = target: Cyclin-dependent kinase 8 (Homo sapiens) (UniProt P49336); conditions: KINOMEscan 353-kinase binding panel, qPCR; CDK8; at 10 µM; stronger effect = lower value
[4] = target: Dual specificity protein kinase CLK2 (Homo sapiens) (UniProt P49760); conditions: KINOMEscan 353-kinase binding panel, qPCR, at 10 µM, stronger effect = lower value
Dual specificity protein kinase CLK2 (Homo sapiens), sequence (P49760 whole entry, looked up): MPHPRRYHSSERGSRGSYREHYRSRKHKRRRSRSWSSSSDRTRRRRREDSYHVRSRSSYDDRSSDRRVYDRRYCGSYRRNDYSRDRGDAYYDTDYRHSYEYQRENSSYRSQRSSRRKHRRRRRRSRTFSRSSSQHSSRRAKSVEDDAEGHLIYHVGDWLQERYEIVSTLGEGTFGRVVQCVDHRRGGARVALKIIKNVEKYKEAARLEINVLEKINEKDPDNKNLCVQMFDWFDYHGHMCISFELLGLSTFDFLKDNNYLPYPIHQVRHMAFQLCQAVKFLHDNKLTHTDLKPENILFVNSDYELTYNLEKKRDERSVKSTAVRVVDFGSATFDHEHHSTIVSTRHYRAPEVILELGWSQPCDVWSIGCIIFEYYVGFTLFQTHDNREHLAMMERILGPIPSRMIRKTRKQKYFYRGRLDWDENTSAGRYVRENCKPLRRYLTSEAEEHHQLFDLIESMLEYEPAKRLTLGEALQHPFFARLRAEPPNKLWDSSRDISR

EPHB1 = conditions: KINOMEscan 353-kinase binding panel, qPCR, at 10 µM, stronger effect = lower value
EPHB3 = conditions: KINOMEscan 353-kinase binding panel, qPCR, at 10 µM, stronger effect = lower value
ERK3 = conditions: KINOMEscan 353-kinase binding panel, qPCR, at 10 µM, stronger effect = lower value
ERK5 = conditions: KINOMEscan 353-kinase binding panel, qPCR, at 10 µM, stronger effect = lower value
[5] = target: Focal adhesion kinase 1 (Homo sapiens) (UniProt Q05397); conditions: KINOMEscan 353-kinase binding panel, qPCR; PTK2; at 10 µM; stronger effect = lower value
[6] = target: Inhibitor of nuclear factor kappa-B kinase subunit alpha (Homo sapiens) (UniProt O15111); conditions: KINOMEscan 353-kinase binding panel, qPCR; IKK-alpha; at 10 µM; stronger effect = lower value
Inhibitor of nuclear factor kappa-B kinase subunit alpha (Homo sapiens), sequence (O15111 whole entry, looked up): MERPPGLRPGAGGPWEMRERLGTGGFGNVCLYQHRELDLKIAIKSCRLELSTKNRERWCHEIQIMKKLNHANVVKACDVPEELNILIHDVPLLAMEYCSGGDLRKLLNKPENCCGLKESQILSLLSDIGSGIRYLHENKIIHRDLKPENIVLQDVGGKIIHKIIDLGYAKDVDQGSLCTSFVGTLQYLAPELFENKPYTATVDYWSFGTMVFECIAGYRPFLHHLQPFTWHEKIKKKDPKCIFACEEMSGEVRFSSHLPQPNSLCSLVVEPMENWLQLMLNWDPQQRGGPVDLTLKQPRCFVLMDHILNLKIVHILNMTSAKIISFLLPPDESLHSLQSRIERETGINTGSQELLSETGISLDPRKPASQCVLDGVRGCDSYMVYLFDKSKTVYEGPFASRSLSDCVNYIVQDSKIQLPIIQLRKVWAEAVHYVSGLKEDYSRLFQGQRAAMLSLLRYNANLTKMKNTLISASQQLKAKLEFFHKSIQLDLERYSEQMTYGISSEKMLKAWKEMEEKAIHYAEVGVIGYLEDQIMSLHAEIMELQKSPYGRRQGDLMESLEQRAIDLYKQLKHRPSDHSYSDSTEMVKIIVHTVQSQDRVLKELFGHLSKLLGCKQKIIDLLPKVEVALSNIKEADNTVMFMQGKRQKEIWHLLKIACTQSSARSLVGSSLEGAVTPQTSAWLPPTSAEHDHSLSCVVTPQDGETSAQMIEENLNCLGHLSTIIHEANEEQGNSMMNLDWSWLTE

[7] = target: Insulin receptor (Homo sapiens) (UniProt P06213); conditions: KINOMEscan 353-kinase binding panel, qPCR; INSR; at 10 µM; stronger effect = lower value
MLCK = conditions: KINOMEscan 353-kinase binding panel, qPCR, at 10 µM, stronger effect = lower value
[8] = target: Mitogen-activated protein kinase 10 (Homo sapiens) (UniProt P53779); conditions: KINOMEscan 353-kinase binding panel, qPCR; JNK3; at 10 µM; stronger effect = lower value
Mitogen-activated protein kinase 10 (Homo sapiens), sequence (P53779 whole entry, looked up): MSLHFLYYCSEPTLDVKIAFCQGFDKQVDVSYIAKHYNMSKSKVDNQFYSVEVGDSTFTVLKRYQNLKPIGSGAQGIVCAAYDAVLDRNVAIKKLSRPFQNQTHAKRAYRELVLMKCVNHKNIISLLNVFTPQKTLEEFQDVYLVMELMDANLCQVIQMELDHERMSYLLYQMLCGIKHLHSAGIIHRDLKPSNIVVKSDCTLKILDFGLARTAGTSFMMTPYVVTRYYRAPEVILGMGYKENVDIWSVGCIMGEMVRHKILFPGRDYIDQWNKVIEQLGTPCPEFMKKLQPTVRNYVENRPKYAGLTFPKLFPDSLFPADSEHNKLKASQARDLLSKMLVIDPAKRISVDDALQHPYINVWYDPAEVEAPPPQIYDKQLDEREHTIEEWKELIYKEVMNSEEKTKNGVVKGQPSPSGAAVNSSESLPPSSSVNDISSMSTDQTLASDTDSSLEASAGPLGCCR

NDR2 = conditions: KINOMEscan 353-kinase binding panel, qPCR, at 10 µM, stronger effect = lower value
[9] = target: NT-3 growth factor receptor (Homo sapiens) (UniProt Q16288); conditions: KINOMEscan 353-kinase binding panel, qPCR; TRKC; at 10 µM; stronger effect = lower value
NT-3 growth factor receptor (Homo sapiens), sequence (Q16288 whole entry, looked up): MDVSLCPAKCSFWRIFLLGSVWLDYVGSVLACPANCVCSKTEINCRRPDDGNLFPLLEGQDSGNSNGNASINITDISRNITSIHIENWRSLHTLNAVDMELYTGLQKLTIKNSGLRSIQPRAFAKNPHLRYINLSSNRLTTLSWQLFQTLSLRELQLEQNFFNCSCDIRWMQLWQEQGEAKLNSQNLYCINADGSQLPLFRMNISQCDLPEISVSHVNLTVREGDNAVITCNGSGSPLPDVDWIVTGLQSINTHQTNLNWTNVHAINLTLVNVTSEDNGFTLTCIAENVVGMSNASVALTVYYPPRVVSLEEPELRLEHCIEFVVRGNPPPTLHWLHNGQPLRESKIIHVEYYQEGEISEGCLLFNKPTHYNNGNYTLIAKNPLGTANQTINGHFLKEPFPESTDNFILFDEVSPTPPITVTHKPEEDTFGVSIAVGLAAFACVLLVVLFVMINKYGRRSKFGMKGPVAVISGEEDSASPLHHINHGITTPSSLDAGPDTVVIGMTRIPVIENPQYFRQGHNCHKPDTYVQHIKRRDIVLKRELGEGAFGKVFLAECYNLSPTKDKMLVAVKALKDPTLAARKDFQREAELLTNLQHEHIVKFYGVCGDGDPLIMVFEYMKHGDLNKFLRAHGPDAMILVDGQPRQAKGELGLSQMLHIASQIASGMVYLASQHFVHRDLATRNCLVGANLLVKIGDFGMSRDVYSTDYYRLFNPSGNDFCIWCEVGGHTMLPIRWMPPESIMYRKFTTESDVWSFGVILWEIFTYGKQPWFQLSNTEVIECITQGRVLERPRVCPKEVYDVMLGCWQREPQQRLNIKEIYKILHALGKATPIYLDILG

PHKG1 = conditions: KINOMEscan 353-kinase binding panel, qPCR, at 10 µM, stronger effect = lower value
PIK3CA(E545K) = conditions: KINOMEscan 353-kinase binding panel, qPCR, at 10 µM, stronger effect = lower value
PRKCE = conditions: KINOMEscan 353-kinase binding panel, qPCR, at 10 µM, stronger effect = lower value
[10] = target: Platelet-derived growth factor receptor alpha (Homo sapiens) (UniProt P16234); conditions: KINOMEscan 353-kinase binding panel, qPCR; PDGFRA; at 10 µM; stronger effect = lower value
[11] = target: Receptor tyrosine-protein kinase erbB-2 (Homo sapiens) (UniProt P04626); conditions: KINOMEscan 353-kinase binding panel, qPCR; ERBB2; at 10 µM; stronger effect = lower value
Receptor tyrosine-protein kinase erbB-2 (Homo sapiens), sequence (P04626 whole entry, looked up): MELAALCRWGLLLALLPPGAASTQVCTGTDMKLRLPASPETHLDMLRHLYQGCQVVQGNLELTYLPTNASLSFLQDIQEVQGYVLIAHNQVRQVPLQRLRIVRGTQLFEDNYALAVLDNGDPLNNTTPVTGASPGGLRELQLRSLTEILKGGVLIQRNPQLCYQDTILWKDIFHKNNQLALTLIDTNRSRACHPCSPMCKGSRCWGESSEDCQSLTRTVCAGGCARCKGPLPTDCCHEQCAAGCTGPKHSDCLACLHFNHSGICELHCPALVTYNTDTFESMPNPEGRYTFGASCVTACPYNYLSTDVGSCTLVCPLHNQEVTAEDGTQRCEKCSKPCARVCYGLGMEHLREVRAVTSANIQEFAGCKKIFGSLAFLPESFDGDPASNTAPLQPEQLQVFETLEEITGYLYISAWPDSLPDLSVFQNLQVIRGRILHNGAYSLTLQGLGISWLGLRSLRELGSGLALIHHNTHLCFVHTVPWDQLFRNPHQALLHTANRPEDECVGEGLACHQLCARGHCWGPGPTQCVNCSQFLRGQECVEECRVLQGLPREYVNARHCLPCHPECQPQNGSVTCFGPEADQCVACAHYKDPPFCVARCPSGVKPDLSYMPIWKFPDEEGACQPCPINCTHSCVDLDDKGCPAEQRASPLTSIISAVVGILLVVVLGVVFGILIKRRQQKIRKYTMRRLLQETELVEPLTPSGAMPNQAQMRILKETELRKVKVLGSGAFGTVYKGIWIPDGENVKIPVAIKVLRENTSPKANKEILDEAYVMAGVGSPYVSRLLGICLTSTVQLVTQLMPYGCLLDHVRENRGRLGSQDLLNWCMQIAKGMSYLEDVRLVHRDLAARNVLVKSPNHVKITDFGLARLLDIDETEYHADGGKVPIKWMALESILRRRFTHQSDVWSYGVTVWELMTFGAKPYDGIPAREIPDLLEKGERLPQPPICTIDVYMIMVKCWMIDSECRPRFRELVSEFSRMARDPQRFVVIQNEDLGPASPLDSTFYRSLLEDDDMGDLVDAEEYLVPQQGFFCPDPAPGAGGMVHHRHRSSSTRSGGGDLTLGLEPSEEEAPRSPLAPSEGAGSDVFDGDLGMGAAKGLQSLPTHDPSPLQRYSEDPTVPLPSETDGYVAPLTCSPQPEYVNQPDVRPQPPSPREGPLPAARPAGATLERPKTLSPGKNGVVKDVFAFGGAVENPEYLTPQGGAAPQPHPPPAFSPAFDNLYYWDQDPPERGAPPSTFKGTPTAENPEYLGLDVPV

[12] = target: Rho-associated protein kinase 2 (Homo sapiens) (UniProt O75116); conditions: KINOMEscan 353-kinase binding panel, qPCR; ROCK2; at 10 µM; stronger effect = lower value
STK36 = conditions: KINOMEscan 353-kinase binding panel, qPCR, at 10 µM, stronger effect = lower value
[13] = target: Serine/threonine-protein kinase SIK2 (Homo sapiens) (UniProt Q9H0K1); conditions: KINOMEscan 353-kinase binding panel, qPCR; SNF1LK2; at 10 µM; stronger effect = lower value
[14] = target: Serine/threonine-protein kinase pim-3 (Homo sapiens) (UniProt Q86V86); conditions: KINOMEscan 353-kinase binding panel, qPCR; PIM3; at 10 µM; stronger effect = lower value
TIE1 = conditions: KINOMEscan 353-kinase binding panel, qPCR, at 10 µM, stronger effect = lower value
TIE2 = conditions: KINOMEscan 353-kinase binding panel, qPCR, at 10 µM, stronger effect = lower value
[15] = target: Tyrosine-protein kinase Fer (Homo sapiens) (UniProt P16591); conditions: KINOMEscan 353-kinase binding panel, qPCR, at 10 µM, stronger effect = lower value
Tyrosine-protein kinase Fer (Homo sapiens), sequence (P16591 whole entry, looked up): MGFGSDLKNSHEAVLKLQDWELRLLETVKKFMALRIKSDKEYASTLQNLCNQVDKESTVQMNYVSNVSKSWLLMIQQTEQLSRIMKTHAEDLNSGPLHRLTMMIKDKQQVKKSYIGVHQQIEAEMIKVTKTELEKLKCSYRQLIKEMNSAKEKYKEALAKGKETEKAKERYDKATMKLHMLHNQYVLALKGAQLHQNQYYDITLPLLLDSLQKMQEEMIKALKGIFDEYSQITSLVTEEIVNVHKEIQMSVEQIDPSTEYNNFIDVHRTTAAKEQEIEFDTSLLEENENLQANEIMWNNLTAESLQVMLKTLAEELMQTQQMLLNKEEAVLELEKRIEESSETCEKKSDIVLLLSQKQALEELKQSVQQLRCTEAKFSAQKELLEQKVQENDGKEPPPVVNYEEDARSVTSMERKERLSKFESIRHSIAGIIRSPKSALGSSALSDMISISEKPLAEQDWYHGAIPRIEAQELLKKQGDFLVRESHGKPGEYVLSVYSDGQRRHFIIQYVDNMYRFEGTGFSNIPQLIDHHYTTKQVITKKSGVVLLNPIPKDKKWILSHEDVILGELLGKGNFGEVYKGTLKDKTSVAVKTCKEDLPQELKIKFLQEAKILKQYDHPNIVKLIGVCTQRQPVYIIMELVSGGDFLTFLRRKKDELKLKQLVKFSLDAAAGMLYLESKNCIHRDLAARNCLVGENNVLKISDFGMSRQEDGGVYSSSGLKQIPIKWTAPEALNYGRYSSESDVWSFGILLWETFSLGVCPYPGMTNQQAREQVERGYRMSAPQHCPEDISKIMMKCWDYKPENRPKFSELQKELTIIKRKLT

[16] = target: Tyrosine-protein kinase Fes/Fps (Homo sapiens) (UniProt P07332); conditions: KINOMEscan 353-kinase binding panel, qPCR, at 10 µM, stronger effect = lower value
[17] = target: Tyrosine-protein kinase Yes (Homo sapiens) (UniProt P07947); conditions: KINOMEscan 353-kinase binding panel, qPCR, at 10 µM, stronger effect = lower value
YANK2 = conditions: KINOMEscan 353-kinase binding panel, qPCR, at 10 µM, stronger effect = lower value
YSK1 = conditions: KINOMEscan 353-kinase binding panel, qPCR, at 10 µM, stronger effect = lower value
[18] = target: cAMP-dependent protein kinase catalytic subunit PRKX (Homo sapiens) (UniProt P51817); conditions: KINOMEscan 353-kinase binding panel, qPCR, at 10 µM, stronger effect = lower value

Measured: percent of control binding

Cc1cc2nc(NCCCO)n(CC(=O)c3cc(C(C)(C)C)c(O)c(C(C)(C)C)c3)c2cc1C
inactive: ANKK1 100% | BRSK2 100% | CAMK1G 88% | [1] 100% | [2] 91% | [3] 93% | [4] 80% | EPHB1 95% | EPHB3 86% | ERK3 86% | ERK5 100% | [5] 100% | [6] 74% | [7] 94% | MLCK 91% | [8] 86% | NDR2 100% | [9] 100% | PHKG1 100% | PIK3CA(E545K) 100% | PRKCE 64% | [10] 86% | [11] 100% | [12] 59% | STK36 100% | [13] 100% | [14] 100% | TIE1 100% | TIE2 100% | [15] 100% | [16] 99% | [17] 100% | YANK2 100% | YSK1 84% | [18] 100%
